Residues, ends and D or L forms follow the SMILES beside them.
Assays:
TNF-α, IL-6, and IL-8 = assay: ELISA of cytokines and chemokine in infected skin keratinocyte cells; format: cell-based, human; details: keratinocytes infected with S. aureus, A. baumannii or P. aeruginosa; peptide at 2 times MIC
Method: To specifically determine the anti-inflammatory effect of the synthetic peptide of the present invention, infection with Acinetobacter baumannii, Pseudomonas aeruginosa, or Staphylococcus aureus and a treatment with myxinidin 2 and myxinidin 3 synthetic peptides were carried out, and interleukin-6 (IL-6) and interleukin-8 (IL-8), which are a cytokine and a chemokine, and tumor necrosis factor alpha (TNF-α) were analyzed by enzyme-linked immunosorbent assay.
Specifically, interleukin-6, interleukin-8, and tumor necrosis factor-α were analyzed by a human immune assay kit. Human skin keratinocyte cells were infected with Staphylococcus aureus, Acinetobacter baumannii, or Pseudomonas aeruginosa, which are the bacterial strain having tolerance to antibiotics, followed by a treatment with the peptide at a concentration that is 2 times higher than the minimum inhibitory concentration to have a reaction. After that, only the supernatant was collected and subjected to an enzyme-linked immunosorbent assay.

[1] = test system: human skin keratinocyte cells infected with bacteria having tolerance to antibiotics; assay: Migration of infected skin keratinocyte cells (scrape wound); format: cell-based; details: peptide at 2 times MIC
Excerpt: To determine the wound healing effect of the peptide of the present invention by activating migration of skin keratinocyte cells infected with Acinetobacter baumannii, Pseudomonas aeruginosa, or Staphylococcus aureus, which are the bacterial strain having tolerance to antibiotics, the adhered cells were damaged to have an infection followed by a treatment with myxinidin 2 or myxinidin 3. The resulting cells were then observed under a microscope.
Specifically, human skin keratinocyte cells were cultured at 1×10^6 cells/ml, and then scraped off using a tip. Then, the cells were infected with Staphylococcus aureus, Acinetobacter baumannii, or Pseudomonas aeruginosa, which are the bacterial strain having tolerance to antibiotics, followed by a treatment with the peptide at a concentration that is 2 times higher than the minimum inhibitory concentration. Cell migration was then observed under a microscope.

[2] = test system: membrane of Staphylococcus aureus; assay: Confocal microscopy analysis with PI (Propidium iodide); format: cell-based; details: reaction for 10 minutes
Method: (§1) Specifically, myxinidin 2 or myxinidin 3, which have been synthesized in the above Example 1, was treated with PI (Propidium Iodide) solution and Escherichia coli or Staphylococcus aureus followed by reaction for 10 minutes. After the reaction, only pure Escherichia coli were collected by centrifuge (4,000 rpm) followed by removal of supernatant. Then, by adding 50 μl of physiological saline (PBS), cell aggregate was removed. By using LSM510 confocal microscope, the working mechanism of the peptide on Escherichia coli and Staphylococcus aureus membrane was determined.

[3] = test system: membrane of Escherichia coli; assay: as above; format: cell-based; details: reaction for 10 minutes
Method: as §1

[4] = test system: skin wound of mouse infected with bacteria having tolerance to antibiotics; assay: Healing of infected skin wound of mouse; format: in vivo, BALB/c female mouse; details: 5 mm biopsy punch wound, peptide at 2 times MIC, observed for 2 weeks
Excerpt: Healing process of skin wound of a mouse induced by the synthetic peptide of the present invention, in which the mouse has been infected with Acinetobacter baumannii, Pseudomonas aeruginosa, or Staphylococcus aureus as the bacterial strain having tolerance to antibiotics, was observed during different time periods. The animal tissue was stained by hematoxylin and eosin (H & E) staining to examine the skin tissue having inflammation.
Specifically, a wound was created in a 6 week to 7 week old BALB/c female mouse using 5 mm biopsy punch. Then, the mouse was infected with Staphylococcus aureus, Acinetobacter baumannii, or Pseudomonas aeruginosa, which are the bacterial strain having tolerance to antibiotics, followed by administration of the peptide at a concentration that is 2 times higher than the minimum inhibitory concentration.

[5] = infection with Acinetobacter baumannii
[6] = infection with Pseudomonas aeruginosa
[7] = infection with Staphylococcus aureus

## CC[C@H](C)[C@H](NC(=O)[C@H](Cc1c[nH]c2ccccc12)NC(=O)[C@H](CCCCN)NC(=O)[C@@H](NC(=O)[C@@H](N)CCCCN)[C@@H](C)CC)C(=O)N[C@@H](CC(C)C)C(=O)N[C@@H](CCCCN)C(=O)N[C@@H](Cc1ccc(O)cc1)C(=O)N[C@@H](Cc1c[nH]c2ccccc12)C(=O)N[C@@H](CCCCN)C(=O)N[C@@H](Cc1c[nH]c2ccccc12)C(=O)N[C@@H](CO)C(N)=O [Myxinidin 2, KIKWILKYWKWS-NH2] (H-KIKWILKYWKWS-NH2; N-terminus assumed)
TNF-α, IL-6, and IL-8
  Expression of cytokine and chemokine (IL-6, TNF-α, IL-8; ELISA): has decreased
[1]; [5]
  Cell migration / regeneration of scraped keratinocytes: proliferation with no cell death
[1]; [6]
  Cell migration / regeneration of scraped keratinocytes: fast regeneration rate
[1]; [7]
  Cell migration / regeneration of scraped keratinocytes: Proliferation with no cell death
[2]
  Activity on membrane (PI, confocal microscopy): work on the membrane of Escherichia coli and Staphylococcus aureus to show PI
[3]
  Activity on membrane (PI, confocal microscopy): work on the membrane of Escherichia coli and Staphylococcus aureus to show PI
[4]
  Wound healing of infected mouse skin wound: showed epidermalization and wound maturation

## CC[C@H](C)[C@H](NC(=O)[C@H](Cc1c[nH]c2ccccc12)NC(=O)[C@H](CCCNC(=N)N)NC(=O)[C@@H](NC(=O)[C@@H](N)CCCNC(=N)N)[C@@H](C)CC)C(=O)N[C@@H](CC(C)C)C(=O)N[C@@H](CCCNC(=N)N)C(=O)N[C@@H](Cc1ccc(O)cc1)C(=O)N[C@@H](Cc1c[nH]c2ccccc12)C(=O)N[C@@H](CCCNC(=N)N)C(=O)N[C@@H](Cc1c[nH]c2ccccc12)C(=O)N[C@@H](CO)C(N)=O [Myxinidin 3, RIRWILRYWRWS-NH2] (H-RIRWILRYWRWS-NH2; N-terminus assumed)
TNF-α, IL-6, and IL-8
  Expression of cytokine and chemokine (IL-6, TNF-α, IL-8; ELISA): has decreased
[1]; [5]
  Cell migration / regeneration of scraped keratinocytes: fast regeneration rate
[1]; [6]
  Cell migration / regeneration of scraped keratinocytes: proliferation with no cell death
[1]; [7]
  Cell migration / regeneration of scraped keratinocytes: more rapid regeneration
[2]
  Activity on membrane (PI, confocal microscopy): work on the membrane of Escherichia coli and Staphylococcus aureus to show PI
[3]
  Activity on membrane (PI, confocal microscopy): work on the membrane of Escherichia coli and Staphylococcus aureus to show PI
[4]
  Wound healing of infected mouse skin wound: showed epidermalization and wound maturation
